Assay [1] deals with T7 RNA polymerase (Escherichia phage T7, UniProt P00573). Conditions: HB-WT Template, ARCA Cap (4:1 ARCA:GTP).
Method: The DNAzyme reaction was performed in a 20 μl reaction containing 1-2 μg RNA and 0.5 μM DNAzyme in 50 mM Tris-HCl pH 7.5. The reaction mixture was preheated at 85° C. for 30 seconds and equilibrate at 37° C. for 5 minutes and added magnesium chloride to 10 mM so that the total volume was 20 μl. The reaction mixture was incubated at 37° C. for 1 hour and stopped by adding 2 μL TURBO DNase and incubating at 37° C. for 30 minutes.
The DNAzyme reaction mixture was prepared for gel analysis by mixing with 2× NOVEX™ TBE-Urea sample buffer (Thermo Fisher Scientific, cat. no. LC6876) and heating at 70° C. for 2 minutes. The sample was loaded onto a NovEx™ 15% TBE-Urea gel (Thermo Fisher Scientific, cat. no. EC68855BOX) and ran at 15 V, 15 mA for 1 hour and 40 minutes or until the bromophenol blue dye migrated to the bottom of the gel. The gel was removed from the cassette, washed in water, and stained with SYBR™ Gold Nucleic Acid Gel Stain (Thermo Fisher Scientific, cat. no. S11494) for 5-10 minutes. Following a brief wash in water, the gel was visualized over an UV light and an image was captured using an iBRIGHT™ system (Thermo Fisher Scientific). Capping efficiency was determined using […] ™ software (ProteinSimple) to measure band intensities of the fast and slow migrating transcripts (capped transcripts are longer than uncapped transcripts; therefore uncapped migrates faster).
The test system of assay [2] is T7 or SP6 RNA polymerase. Conditions: either 3'-OH of G or m7G can initiate elongation; cited from earlier work.

Chain of T7 RNA polymerase (P00573 whole entry, looked up): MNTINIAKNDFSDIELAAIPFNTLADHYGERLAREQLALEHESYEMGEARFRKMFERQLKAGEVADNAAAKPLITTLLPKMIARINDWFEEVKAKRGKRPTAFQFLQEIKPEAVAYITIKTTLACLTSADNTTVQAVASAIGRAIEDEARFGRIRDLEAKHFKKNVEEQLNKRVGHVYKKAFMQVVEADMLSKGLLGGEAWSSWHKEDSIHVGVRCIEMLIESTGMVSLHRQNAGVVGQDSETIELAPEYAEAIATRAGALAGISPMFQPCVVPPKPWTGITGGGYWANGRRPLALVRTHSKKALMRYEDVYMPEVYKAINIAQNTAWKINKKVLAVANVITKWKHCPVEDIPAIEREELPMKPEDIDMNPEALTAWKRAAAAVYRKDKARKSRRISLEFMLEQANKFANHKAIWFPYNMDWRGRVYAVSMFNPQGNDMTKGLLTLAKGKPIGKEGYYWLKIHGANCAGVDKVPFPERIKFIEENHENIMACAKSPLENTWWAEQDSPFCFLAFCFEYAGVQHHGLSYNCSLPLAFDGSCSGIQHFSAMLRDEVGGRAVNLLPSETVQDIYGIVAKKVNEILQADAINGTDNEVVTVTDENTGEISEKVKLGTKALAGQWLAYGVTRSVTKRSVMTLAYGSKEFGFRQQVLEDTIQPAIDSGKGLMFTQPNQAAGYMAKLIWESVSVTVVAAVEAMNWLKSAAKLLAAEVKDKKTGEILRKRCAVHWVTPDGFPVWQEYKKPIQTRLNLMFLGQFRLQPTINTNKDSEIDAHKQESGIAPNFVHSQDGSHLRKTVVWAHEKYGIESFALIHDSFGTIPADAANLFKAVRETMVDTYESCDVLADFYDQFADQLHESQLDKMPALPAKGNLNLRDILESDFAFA

In the case of `CO[C@H]1[C@@H](O)[C@H](n2c[n+](C)c3c(=O)[nH]c(N)nc32)O[C@@H]1COP(=O)(O)OP(=O)(O)OP(=O)(O)OC[C@H]1O[C@@H](n2cnc3c(=O)[nH]c(N)nc32)[C@H](O)[C@@H]1O` [ARCA Cap], the “Capping Efficiency Avg % capped” value in assay [1] is given as 71.93%.
For the molecule `Cn1c[n+]([C@@H]2O[C@H](COP(=O)(O)OP(=O)(O)OP(=O)(O)OC[C@H]3O[C@@H](n4cnc5c(=O)[nH]c(N)nc54)[C@H](O)[C@@H]3O)[C@@H](O)[C@H]2O)c2nc(N)[nH]c(=O)c21` [mCAP, m^7G(5′)ppp(5′)G], in assay [2], the “capped RNA that is translatable” value is on record as roughly 50%.

(Values after US12385039B2, “Trinucleotide cap analogs, preparation and uses thereof” (LIFE TECHNOLOGIES CORPORATION, priority 2020, dated 2025).)
